Measured values reported in patent US20110287108A1 (priority 2008, published 2011).
Structures can show the parent of a compound that is named as a salt. Where two headings read alike, the source gives them in different places.

System: Phytophthora infestans
Type: in vivo
Conditions: tomato plants
[1] = protective, 3 days after inoculation, 12.5 ppm a.i.
[2] = protective, 3 days after inoculation, 0.25 ppm a.i.
[3] = protective, 3 days after inoculation, 0.5 ppm a.i.

| Compound | Efficacy in % found [1] [%] | Efficacy in % found [2] [%] | other results |
| --- | --- | --- | --- |
| [Cl-].[Cu+2].[Cu+2].[OH-].[OH-].[OH-] [copper oxychloride] | 58 | – | – |
| CCC(C)(NC(=O)c1cc(Cl)c(C)c(Cl)c1)C(=O)CCl (stereo not drawn) [zoxamide] | – | 18 | – |
| CC(C)[C@H](NC(=O)O)C(=O)N[C@H](C)c1nc2ccc(F)cc2s1 [benthiavalicarb] | – | 16 | – |
| N#Cc1c(Cl)c(Cl)c(Cl)c(C#N)c1Cl [chlorothalonil] | 19 | – | – |
| fosetyl-aluminium | 42 | – | – |
| COc1ccc(C(=CC(=O)N2CCOCC2)c2ccc(Cl)cc2)cc1OC [dimethomorph] | – | – | Efficacy in % found [3]: 35% |
| CCCCCNc1cccc(CON=C(c2ccccc2)c2nnnn2C)n1 [6-[({[(1-methyl-1H-tetrazol-5-yl)(phenyl)methylene]amino}oxy)methyl]-N-pentylpyridin-2-amine] | – | – | Efficacy in % found (protective spray, evaluated 3 days after inoculation, application rate cell empty): 69% |
| OP(O)O [phosporous acid] | 33 | – | – |
| CCCOC(=O)NCCCN(C)C [propamocarb-HCl] | – | – | Efficacy in % found (protective, 3 days after inoculation, 25 ppm a.i.): 24% |
| CCCCCCNc1cccc(CON=C(c2ccccc2)c2nnnn2C)n1 [N-hexyl-6-[({[(1-methyl-1H-tetrazol-5-yl)(phenyl)methylene]amino}oxy)-methyl]pyridin-2-amine] | – | 48 | Efficacy in % found [3]: 63% |
| O=C(NCc1ncc(C(F)(F)F)cc1Cl)c1c(Cl)cccc1Cl [fluopicolide] | – | 4 | – |
